Measured values as given in patent US9266838B2, “Substituted (E)-N′-(1-phenylethylidene)benzohydrazide analogs as histone demethylase inhibitors” (University of Utah Research Foundation, priority 2011, dated 2016).

Experiments:
LSD1 = LSD1 (Homo sapiens, UniProt O60341); experiment: LSD1 histone demethylase assay (LSD1 Inhibitor Screening Assay Kit); type: biochemical
Description: Briefly, test compounds were diluted to 20× the desired test concentration in 100% DMSO and 2.5 μL of the diluted drug sample was added to a black 384-well plate. The LSD1 enzyme stock was diluted 17-fold with assay buffer and 40 μM of the diluted LSD1 enzyme was added to the appropriate wells.
(§1) IC50 values are determined using GraphPad Prism 5 software. The data were entered as an X-Y plot into the software as percent inhibition for each concentration of the drug. The concentration values of the drug were log transformed and the nonlinear regression was carried out using the “sigmoidal dose-response (variable slope)” option within the GraphPad software to model the data and calculate IC50 values.

T-47D cells = experiment: Cell viability assay (ATPlite), T-47D; type: cell-based; conditions: Homo sapiens, T47D, 96 hours, read-out: Cell Growth, IC50
Description: Cells were cultured according to the procedures provided. […] Cells were cultured at 37° C. and 5% CO2.
Cell viability was determined using ATPlite™ Luminescence Assay System (PerkinElmer Inc., Waltham, Mass.) using the various cell-lines described above and in Table 4. Briefly, cells were seeded in 96-well plates and then treated with different concentrations of inhibitor (0.1% final DMSO concentration). After 96-hours of incubation, ATPlite detection reagent was added directly to the culture well. Luminescence was read 5 minutes later on an Envision microplate reader.
as §1

heme oxygenase 1 (HMOX1) = experiment: Expression array experiments (transcriptional changes); type: cell-based; conditions: multiple cell lines; data not shown

| SMILES | IC50 (LSD1) [nM] | further results |
| --- | --- | --- |
| C/C(=N\NC(=O)c1cccc(S(=O)(=O)N2CCC(C)CC2)c1)c1cc(Cl)ccc1O [Compound 26, (E)-N′-(1-(5-chloro-2-hydroxyphenyl)ethylidene)-3-((4-methylpiperidin-1-yl)sulfonyl)benzohydrazide] | 9.5 | – |
| O=C(c1cccc(S(=O)(=O)N2CCOCC2)c1)n1ccc(-c2cc(Cl)ccc2O)n1 [Compound 38, (3-(5-chloro-2-hydroxyphenyl)-1H-pyrazol-1-yl)(3-(morpholinosulfonyl)phenyl)methanone] | > 3000 | – |
| C/C(=N\NC(=O)c1cccc(S(=O)(=O)N2CCOCC2)c1)c1cccc(Cl)c1F [Compound 13, (E)-N′-(1-(3-chloro-2-fluorophenyl)ethylidene)-3-(morpholinosulfonyl)benzohydrazide] | – | IC50 (T-47D cells): > 10000 nM |
| C/C(=N\NC(=O)c1cccc(S(=O)(=O)N2CCN(C)CC2)c1)c1cc(Cl)ccc1O [Compound 35, (E)-N′-(1-(5-chloro-2-hydroxyphenyl)ethylidene)-3-((4-methylpiperazin-1-yl)sulfonyl)benzohydrazide] | < 10 | – |
| CNS(=O)(=O)c1cccc(C(=O)N/N=C(\C)c2cc(Cl)ccc2O)c1 [Compound 29, (E)-3-(2-(1-(5-chloro-2-hydroxyphenyl)ethylidene)hydrazinecarbonyl)-N-methylbenzenesulfonamide] | 8.7 | – |
| C/C(=N\NC(=O)c1cccc(S(=O)(=O)N2CCOCC2)c1)c1cc(Cl)ccc1O [Compound 12, (E)-N′-(1-(5-chloro-2-hydroxyphenyl)ethylidene)-3-(morpholinosulfonyl)benzohydrazide] | – | transcriptional change of HMOX1 (heme oxygenase 1 (HMOX1)): one of the most consistently up-regulated genes |
